# ChEMBL document CHEMBL3885881, “DrugMatrix”
# Species on record: Rattus norvegicus
# Assay: DrugMatrix - Regimen: Daily Repeat
# Assay type: toxicity, organism-based, Sprague-Dawley
# Design: regimen Daily Repeat, gender Male, age 6-8 weeks
# Details: in vivo, po, route oral GAVAGE, vehicle .5 % CMC; for ABSOLUTE BASOPHIL / ABSOLUTE EOSINOPHIL / ABSOLUTE LYMPHOCYTE / ABSOLUTE MONOCYTE / ABSOLUTE SEGMENTED NEUTROPHIL / BASOPHIL / EOSINOPHIL / ERYTHROCYTE COUNT / HEMATOCRIT / HEMOGLOBIN / LEUKOCYTE COUNT / LYMPHOCYTE / MEAN CORPUSCULAR HEMOGLOBIN / MEAN CORPUSCULAR HEMOGLOBIN CONCENTRATION / MEAN CORPUSCULAR VOLUME / MONOCYTE / NEUTROPHIL / NUCLEATED RED BLOOD CELLS / PLATELET COUNT: tissue Blood; for ALANINE AMINOTRANSFERASE / ALBUMIN / ALKALINE PHOSPHATASE / ASPARTATE AMINOTRANSFERASE / BLOOD UREA NITROGEN / CARBON DIOXIDE / CHLORIDE / CHOLESTEROL / CREATINE PHOSPHOKINASE / CREATININE / GLUCOSE / LACTATE DEHYDROGENASE / LIPASE / PHOSPHORUS / POTASSIUM / SODIUM / TOTAL BILIRUBIN / TOTAL PROTEIN / URIC ACID: tissue Plasma
# [1] = 5 mg/kg, 72 h, dose level Low, time 3 day
# [2] = 5 mg/kg, 120 h, dose level Low, time 5 day
# [3] = 26 mg/kg, 72 h, dose level High, time 3 day
# [4] = 26 mg/kg, 120 h, dose level High, time 5 day
smiles,measurement,setting,value
Nc1nnc(-c2cccc(Cl)c2Cl)c(N)n1 [LAMOTRIGINE],ABSOLUTE BASOPHIL,[1],0 CELLS/uL
same,ABSOLUTE EOSINOPHIL,[1],0 CELLS/uL
same,ABSOLUTE LYMPHOCYTE,[1],10899.33 CELLS/uL
same,ABSOLUTE MONOCYTE,[1],45.33 CELLS/uL
same,ABSOLUTE SEGMENTED NEUTROPHIL,[1],922 CELLS/uL
same,BASOPHIL,[1],0%
same,EOSINOPHIL,[1],0%
same,ERYTHROCYTE COUNT,[1],5.73 x10E6/uL
same,HEMATOCRIT,[1],35.93%
same,HEMOGLOBIN,[1],13.53 G/DL
same,LEUKOCYTE COUNT,[1],11.87 x10E3/uL
same,LYMPHOCYTE,[1],91.67%
same,MEAN CORPUSCULAR HEMOGLOBIN,[1],23.7 pg
same,MEAN CORPUSCULAR HEMOGLOBIN CONCENTRATION,[1],37.7 G/DL
same,MEAN CORPUSCULAR VOLUME,[1],62.83 fL
same,MONOCYTE,[1],0.33%
same,NEUTROPHIL,[1],8%
same,NUCLEATED RED BLOOD CELLS,[1],0.33 /100WBC
same,PLATELET COUNT,[1],1386.33 x10E3/uL
same,ALANINE AMINOTRANSFERASE,[1],59 u/L
same,ALBUMIN,[1],4.23 G/DL
same,ALKALINE PHOSPHATASE,[1],377.33 u/L
same,ASPARTATE AMINOTRANSFERASE,[1],90.67 u/L
same,BLOOD UREA NITROGEN,[1],15 mg/dL
same,CARBON DIOXIDE,[1],25.67 mmol/L
same,CHLORIDE,[1],103.33 MEQ/L
same,CHOLESTEROL,[1],73.33 mg/dL
same,CREATINE PHOSPHOKINASE,[1],322.33 u/L
same,CREATININE,[1],0.43 mg/dL
same,GLUCOSE,[1],152 mg/dL
same,LACTATE DEHYDROGENASE,[1],339.67 u/L
same,LIPASE,[1],10.33 u/L
same,PHOSPHORUS,[1],13.67 mg/dL
same,POTASSIUM,[1],6.72 MEQ/L
same,SODIUM,[1],145.9 MEQ/L
same,TOTAL BILIRUBIN,[1],0.2 mg/dL
same,TOTAL PROTEIN,[1],5.77 G/DL
same,URIC ACID,[1],1.6 mg/dL
same,ABSOLUTE BASOPHIL,[2],0 CELLS/uL
same,ABSOLUTE EOSINOPHIL,[2],56.33 CELLS/uL
same,ABSOLUTE LYMPHOCYTE,[2],12053 CELLS/uL
same,ABSOLUTE MONOCYTE,[2],415 CELLS/uL
same,ABSOLUTE SEGMENTED NEUTROPHIL,[2],1309 CELLS/uL
same,BASOPHIL,[2],0%
same,EOSINOPHIL,[2],0.33%
same,ERYTHROCYTE COUNT,[2],5.33 x10E6/uL
same,HEMATOCRIT,[2],35.73%
same,HEMOGLOBIN,[2],13.3 G/DL
same,LEUKOCYTE COUNT,[2],13.83 x10E3/uL
same,LYMPHOCYTE,[2],87%
same,MEAN CORPUSCULAR HEMOGLOBIN,[2],25 pg
same,MEAN CORPUSCULAR HEMOGLOBIN CONCENTRATION,[2],37.23 G/DL
same,MEAN CORPUSCULAR VOLUME,[2],67.17 fL
same,MONOCYTE,[2],3%
same,NEUTROPHIL,[2],9.67%
same,NUCLEATED RED BLOOD CELLS,[2],0 /100WBC
same,PLATELET COUNT,[2],1207 x10E3/uL
same,ALANINE AMINOTRANSFERASE,[2],54.33 u/L
same,ALBUMIN,[2],4.4 G/DL
same,ALKALINE PHOSPHATASE,[2],422.67 u/L
same,ASPARTATE AMINOTRANSFERASE,[2],86.33 u/L
same,BLOOD UREA NITROGEN,[2],16.67 mg/dL
same,CARBON DIOXIDE,[2],23 mmol/L
same,CHLORIDE,[2],104 MEQ/L
same,CHOLESTEROL,[2],71.67 mg/dL
same,CREATINE PHOSPHOKINASE,[2],218.33 u/L
same,CREATININE,[2],0.41 mg/dL
same,GLUCOSE,[2],152.67 mg/dL
same,LACTATE DEHYDROGENASE,[2],99.67 u/L
same,LIPASE,[2],10.33 u/L
same,PHOSPHORUS,[2],12.27 mg/dL
same,POTASSIUM,[2],6.44 MEQ/L
same,SODIUM,[2],149.03 MEQ/L
same,TOTAL BILIRUBIN,[2],0.17 mg/dL
same,TOTAL PROTEIN,[2],6.17 G/DL
same,URIC ACID,[2],1.8 mg/dL
same,ABSOLUTE BASOPHIL,[3],0 CELLS/uL
same,ABSOLUTE EOSINOPHIL,[3],0 CELLS/uL
same,ABSOLUTE LYMPHOCYTE,[3],13769 CELLS/uL
same,ABSOLUTE MONOCYTE,[3],39.33 CELLS/uL
same,ABSOLUTE SEGMENTED NEUTROPHIL,[3],558.33 CELLS/uL
same,BASOPHIL,[3],0%
same,EOSINOPHIL,[3],0%
same,ERYTHROCYTE COUNT,[3],5.86 x10E6/uL
same,HEMATOCRIT,[3],39.23%
same,HEMOGLOBIN,[3],14.47 G/DL
same,LEUKOCYTE COUNT,[3],14.37 x10E3/uL
same,LYMPHOCYTE,[3],95.67%
same,MEAN CORPUSCULAR HEMOGLOBIN,[3],24.67 pg
same,MEAN CORPUSCULAR HEMOGLOBIN CONCENTRATION,[3],36.9 G/DL
same,MEAN CORPUSCULAR VOLUME,[3],66.93 fL
same,MONOCYTE,[3],0.33%
same,NEUTROPHIL,[3],4%
same,NUCLEATED RED BLOOD CELLS,[3],0.33 /100WBC
same,PLATELET COUNT,[3],1200 x10E3/uL
same,ALANINE AMINOTRANSFERASE,[3],73 u/L
same,ALBUMIN,[3],4.6 G/DL
same,ALKALINE PHOSPHATASE,[3],355.33 u/L
same,ASPARTATE AMINOTRANSFERASE,[3],139.67 u/L
same,BLOOD UREA NITROGEN,[3],13 mg/dL
same,CARBON DIOXIDE,[3],24.67 mmol/L
same,CHLORIDE,[3],102 MEQ/L
same,CHOLESTEROL,[3],91 mg/dL
same,CREATINE PHOSPHOKINASE,[3],1448.33 u/L
same,CREATININE,[3],0.29 mg/dL
same,GLUCOSE,[3],138 mg/dL
same,LACTATE DEHYDROGENASE,[3],373.67 u/L
same,LIPASE,[3],10.33 u/L
same,PHOSPHORUS,[3],13.67 mg/dL
same,POTASSIUM,[3],7.33 MEQ/L
same,SODIUM,[3],146.47 MEQ/L
same,TOTAL BILIRUBIN,[3],0.2 mg/dL
same,TOTAL PROTEIN,[3],6.5 G/DL
same,URIC ACID,[3],3 mg/dL
same,ABSOLUTE BASOPHIL,[4],0 CELLS/uL
same,ABSOLUTE EOSINOPHIL,[4],0 CELLS/uL
same,ABSOLUTE LYMPHOCYTE,[4],13660 CELLS/uL
same,ABSOLUTE MONOCYTE,[4],181.67 CELLS/uL
same,ABSOLUTE SEGMENTED NEUTROPHIL,[4],558.33 CELLS/uL
same,BASOPHIL,[4],0%
same,EOSINOPHIL,[4],0%
same,ERYTHROCYTE COUNT,[4],5.81 x10E6/uL
same,HEMATOCRIT,[4],37.13%
same,HEMOGLOBIN,[4],14.03 G/DL
same,LEUKOCYTE COUNT,[4],14.4 x10E3/uL
same,LYMPHOCYTE,[4],95%
same,MEAN CORPUSCULAR HEMOGLOBIN,[4],24.17 pg
same,MEAN CORPUSCULAR HEMOGLOBIN CONCENTRATION,[4],37.8 G/DL
same,MEAN CORPUSCULAR VOLUME,[4],63.93 fL
same,MONOCYTE,[4],1.33%
same,NEUTROPHIL,[4],3.67%
same,NUCLEATED RED BLOOD CELLS,[4],0.33 /100WBC
same,PLATELET COUNT,[4],1279.33 x10E3/uL
same,ALANINE AMINOTRANSFERASE,[4],64.67 u/L
same,ALBUMIN,[4],4.4 G/DL
same,ALKALINE PHOSPHATASE,[4],331.33 u/L
same,ASPARTATE AMINOTRANSFERASE,[4],78 u/L
same,BLOOD UREA NITROGEN,[4],18.67 mg/dL
same,CARBON DIOXIDE,[4],27.67 mmol/L
same,CHLORIDE,[4],103 MEQ/L
same,CHOLESTEROL,[4],75.67 mg/dL
same,CREATINE PHOSPHOKINASE,[4],225 u/L
same,CREATININE,[4],0.28 mg/dL
same,GLUCOSE,[4],163 mg/dL
same,LACTATE DEHYDROGENASE,[4],110.33 u/L
same,LIPASE,[4],10.67 u/L
same,PHOSPHORUS,[4],12.43 mg/dL
same,POTASSIUM,[4],7.41 MEQ/L
same,SODIUM,[4],147.97 MEQ/L
same,TOTAL BILIRUBIN,[4],0.2 mg/dL
same,TOTAL PROTEIN,[4],6.2 G/DL
same,URIC ACID,[4],2.03 mg/dL
